Each structure is given as a SMILES string. pEC50: −log10 of the molar value.

These results are taken from US20230089582A1, “1,2,4-TRIAZINE-3,5-DIONE COMPOUND, PREPARATION METHOD THEREFOR, AND APPLICATION THEREOF” (KPC PHARMACEUTICALS, INC, priority 2019, published 2023).

For one series, the target named is T1, THRβ (Homo sapiens, UniProt P10828).
T1 construct: RXRα and GST-tagged THRβ-LBD
The series can be described thus: THRβ binding assay (TR-FRET co-activating peptide recruitment). It counts as biochemical. The note with it: THRβ-LBD/RXRα, SRC2-2 co-activating peptide recruitment, agonistic effect. The protocol: Experimental method: In vitro analysis of the agonistic effect of the compounds on THRβ was performed using a time-resolved fluorescence resonance energy transfer co-activating peptide recruitment assay. The assay used Eu-anti-GST antibody, biotin-SRC2-2 co-activating peptide, streptavidin-d2, RXRα and GST-tagged THRβ-LBD. The Eu-anti-GST antibody indirectly labeled THRβ-LBD by binding to GST tag. Streptavidin-d2 indirectly labeled the SRC2-2 co-activating peptide by binding to biotin tag. In the presence of RXRα, THRβ-LBD can form a heterodimer THRβ-LBD/RXRα with it. The agonist bound to THRβ-LBD/RXRα and caused a conformational change of THRβ-LBD, thereby increasing the recruitment capacity of the heterodimer to the SRC2-2 co-activating peptide. Furthermore, the resulting decreased distance between the d2-labeled SRC2-2 co-activating peptide and the Eu-anti-GST antibody increased the […] signal. The agonistic ability of a compound can be assessed based on the effect of different concentrations of the compound on THRβ activity.
The detailed procedure is as follows.
a. 100× reference compound or compound was prepared with DMSO and diluted in 1:3.
e. The plates were centrifuged at 1000 rpm for 1 min and incubated for 4 h at room temperature shielded from light.

In another series the target is THRα (Homo sapiens, UniProt P10827). The experiment in a line: THRα binding assay (TR-FRET co-activating peptide recruitment). It counts as biochemical. To be noted: THRα instead of THRβ, agonistic effect.
Another series is described as follows: in vitro. The note with it: microsomes, pH 7.4. How it is done: The stop solution was an acetonitrile solution containing tolbutamide and propranolol (both internal standards).
Phosphate buffer was 100 mM K3PO4 (pH=7.4) buffer containing 3.3 mM MgCl2.
The liver microsome incubation system was in 100 mM phosphate buffer containing 0.2 mg/mL liver microsomal protein and 1 μM test substance/positive control.
80 μL of the mixture was transferred from the incubation system to 400 μL of stop solution to precipitate proteins, and 20 μL of NADPH regeneration system was added after vortexing as a 0 min sample point.
130 μL of NADPH regeneration system was added to the remaining 520 μL of protein drug mixture and mixed well to start incubation. The final incubation system was 650 μL, containing 0.2 mg/mL liver microsomal protein, 1 μM test substance/positive control, 1.3 mM NADP, 3.3 mM G-6-P and 0.6 U/mL G-6-PDH.

T1 sequence (P10828 217-461 limits assumed, other chains not shown): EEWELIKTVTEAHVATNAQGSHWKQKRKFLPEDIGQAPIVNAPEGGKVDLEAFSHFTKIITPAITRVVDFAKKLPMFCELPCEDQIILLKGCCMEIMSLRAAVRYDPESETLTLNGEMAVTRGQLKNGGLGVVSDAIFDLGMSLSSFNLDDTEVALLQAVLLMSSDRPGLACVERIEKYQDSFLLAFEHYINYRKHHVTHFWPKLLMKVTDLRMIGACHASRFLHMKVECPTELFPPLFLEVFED
T1 sequence (P19793 whole entry partner, other chains not shown, the tested form may be a part): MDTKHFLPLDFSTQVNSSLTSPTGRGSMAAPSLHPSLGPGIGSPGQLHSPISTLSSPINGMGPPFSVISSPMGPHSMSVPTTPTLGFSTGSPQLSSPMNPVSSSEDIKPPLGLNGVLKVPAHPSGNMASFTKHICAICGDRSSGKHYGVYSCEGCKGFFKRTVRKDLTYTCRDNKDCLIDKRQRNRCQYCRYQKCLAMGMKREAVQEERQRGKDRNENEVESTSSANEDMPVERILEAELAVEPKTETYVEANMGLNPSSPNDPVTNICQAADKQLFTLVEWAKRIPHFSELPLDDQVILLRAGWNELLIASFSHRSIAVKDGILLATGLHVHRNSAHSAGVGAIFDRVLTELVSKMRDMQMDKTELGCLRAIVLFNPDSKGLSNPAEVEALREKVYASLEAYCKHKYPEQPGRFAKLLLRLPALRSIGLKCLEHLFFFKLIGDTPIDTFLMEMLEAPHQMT
Chain of THRα (P10827 163-410 isoform P10827-2 limits assumed, other chains not shown): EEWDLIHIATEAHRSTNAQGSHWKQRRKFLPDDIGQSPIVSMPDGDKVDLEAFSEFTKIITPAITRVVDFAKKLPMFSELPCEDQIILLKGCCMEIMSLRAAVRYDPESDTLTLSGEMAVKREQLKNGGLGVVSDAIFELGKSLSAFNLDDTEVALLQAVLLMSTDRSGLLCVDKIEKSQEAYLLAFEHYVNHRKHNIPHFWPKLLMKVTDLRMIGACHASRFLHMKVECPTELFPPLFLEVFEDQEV
Chain of THRα (P19793 whole entry partner, other chains not shown): as the sequence (P19793 whole entry partner, other chains not shown, the tested form may be a part) above

What is called pEC50 is −log10 of the EC50, conventionally taken in molar units. For the molecule `CC(C)c1cc(Oc2c(Cl)cc(-n3nc(O)c(=O)[nH]c3=O)cc2Cl)n[nH]c1=O` [Example 20, 2-(3,5-dichloro-4-((5-isopropyl-6-oxo-1,6-dihydropyridazin-3-yl)oxy)phenyl)-6-hydroxy-1,2,4-triazine-3,5(2H,4H)-dione], on THRβ, the pEC50 is below 5.00.

For orientation: Emax means the size of the effect at its maximum, as opposed to the concentration needed. As to `CC(C)c1cc(Oc2c(Cl)cc(-n3nc(C4CC4)c(=O)[nH]c3=O)cc2Cl)n[nH]c1=O` [Example 19, 6-cyclopropyl-2-(3,5-dichloro-4-((5-isopropyl-6-oxo-1,6-dihydropyridazin-3-yl)oxy)phenyl)-1,2,4-triazine-3,5(2H,4H)-dione], at THRβ, the negative logarithm of the EC50 (pEC50) is 5.14 and the Emax was 77.7%.

As usually defined, the half-life is how long it takes for the measured level to halve. Read a high half-life as slow loss. Usually microsomal CLint stands for a measure of how fast metabolising enzymes remove a compound, apart from limits set by blood flow. A low value points to slow turnover. On to `CC(C)c1cc(Oc2c(Cl)cc(-n3nc(CF)c(=O)[nH]c3=O)cc2Cl)n[nH]c1=O` [Example 2], for which the pEC50 on THRβ is 8.30; at THRα it was 6.72. For the same molecule, the Emax at THRβ amounted to 92.8%; on THRα, 107%. For the same molecule, the half-life at 1 μM stood at 4.4 h in “in vitro” (dog); 17.1 h in the series “in vitro” (human); 8.92 h in “in vitro” (monkey); 3.12 h in “in vitro” (mouse); 12.3 h in “in vitro” (rat). In addition, the microsomal CLint at 1 μM in the series “in vitro” (dog) worked out at 13.1 µL/min/mg; in “in vitro” (human), 3.4 µL/min/mg; in the series “in vitro” (monkey) it was 6.5 µL/min/mg; in “in vitro” (mouse) it was 18.5 µL/min/mg; in the series “in vitro” (rat) it was 4.7 µL/min/mg.

At THRβ, `CC(C)(F)c1cc(Oc2c(Cl)cc(-n3nc(CF)c(=O)[nH]c3=O)cc2Cl)n[nH]c1=O` [Example 16, 3-(3,5-dichloro-4-((5-(2-fluoropropan-2-yl)-6-oxo-1,6-dihydropyridazin-3-yl)oxy)phenyl)-6-(fluoromethyl)-1,2,4-triazine-3,5(2H,4H)-dione] showed a pEC50 of 6.79 and an Emax of 111%.

At THRβ, `O=c1[nH]nc(Oc2c(Cl)cc(-n3nc(CF)c(=O)[nH]c3=O)cc2Cl)cc1C1CCC1` [Example 14, 2-(3,5-dichloro-4-((5-cyclobutyl-6-oxo-1,6-dihydropyridazin-3-yl)oxy)phenyl)-6-(fluoromethyl)-1,2,4-triazine-3,5(2H,4H)-dione] showed a pEC50 of 7.38 and an Emax of 117%. In addition, on THRα, the pEC50 is 6.64 and the Emax is 124%.

On THRβ, `O=c1[nH]nc(Oc2c(Cl)cc(-n3nc(CF)c(=O)[nH]c3=O)cc2Cl)cc1C1CC1` [Example 12, 2-(3,5-dichloro-4-((5-cyclopropyl-6-oxo-1,6-dihydropyridazin-3-yl)oxy)phenyl)-6-(fluoromethyl)-1,2,4-triazine-3,5(2H,4H)-dione] showed a pEC50 of 7.15 and an Emax of 105%. On THRα, this molecule gave a pEC50 of 6.68 and an Emax of 127%.

On THRβ, `C=C(C)c1cc(Oc2c(Cl)cc(-n3nc(CF)c(=O)[nH]c3=O)cc2Cl)n[nH]c1=O` [Example 18, 2-(3,5-dichloro-4-((6-oxo-5-(prop-1-en-2-yl)-1,6-dihydropyridazin-3-yl)oxy)phenyl)-6-(fluoromethyl)-1,2,4-triazine-3,5(2H,4H)-dione] gave a pEC50 of 7.63 and an Emax of 124%.

Take `O=c1[nH]nc(Oc2c(Cl)cc(-n3nc(CF)c(=O)[nH]c3=O)cc2Cl)cc1C1CCCCC1` [Example 9, 2-(3,5-dichloro-4-((5-cyclohexyl-6-oxo-1,6-dihydropyridazin-3-yl)oxy)phenyl)-6-(fluoromethyl)-1,2,4-triazine-3,5(2H,4H)-dione]: on THRβ, the negative-log EC50 (pEC50) is 7.00 and the Emax amounted to 108%. At THRα, this molecule gave a pEC50 of 5.37 and an Emax of 123%.

With `CC(C)c1cc(Oc2c(Cl)cc(-n3nc(C#N)c(=O)[nH]c3=O)cc2Cl)n[nH]c1=O` [Control compound 2, MGL-3196, reference compound], the half-life at 1 μM came to 2 h in the series “in vitro” (dog), 5.18 h in the series “in vitro” (human), 4.96 h in “in vitro” (monkey) and 12.8 h in “in vitro” (rat). In addition, the microsomal CLint at 1 μM in the series “in vitro” (dog) turned out to be 28.9 µL/min/mg; in the series “in vitro” (human), 11.2 µL/min/mg; in the series “in vitro” (monkey), 11.6 µL/min/mg; in “in vitro” (rat), 4.5 µL/min/mg.

Regarding `O=c1[nH]nc(Oc2c(Cl)cc(-n3nc(CF)c(=O)[nH]c3=O)cc2Cl)cc1C1CCCC1` [Example 10, 2-(3,5-dichloro-4-((5-cyclopentyl-6-oxo-1,6-dihydropyridazin-3-yl)oxy)phenyl)-6-(fluoromethyl)-1,2,4-triazine-3,5(2H,4H)-dione], the pEC50 at THRβ was 7.03; at THRα, 5.85. Besides, the Emax is 110% on THRβ and 112% on THRα.
